These are literature values, as cited in patent US9066886B2, “Transdermal drug delivery system containing granisetron” (TAHO PHARMACEUTICALS, LTD., priority 2008, dated 2015).

For the series the following is noted: tablet with 1 mg of granisetron; from Korean Patent Laid-Open Publication No. 10-2005-0116365.

In general, Cmax refers to the maximum level reached in the sampled fluid or tissue. As for `CN1C2CCCC1CC(NC(=O)c1nn(C)c3ccccc13)C2` (stereo not shown) [granisetron], the Cmax is 3.6 ng/mL.
